In patent US20110224250A1, “ISOQUINOLINE DERIVATIVE, AND PDE INHIBITOR COMPRISING SAME AS ACTIVE INGREDIENT” (priority 2008, published 2011):

Assays:
[1] = target: T1, PDE3A catalytic zone (Homo sapiens, UniProt Q14432); assay: Phosphodiesterase-inhibitory activity, PDE3; assay type: biochemical; conditions: human-derived recombinant PDE protein, [3H]-cAMP, 30° C. for 20 minutes; read-out: IC50 (μmol/L) PDE3
T1 construct: Regarding the cDNAs of the PDE3A catalytic zone; made in house; host or cells: Sf9 insect cells (baculovirus, Bac-to-Bac / Gateway)

[2] = target: T2, PDE4Bcat (Homo sapiens, UniProt Q07343); assay: Phosphodiesterase-inhibitory activity, PDE4; assay type: biochemical; conditions: human-derived recombinant PDE protein, [3H]-cAMP, 30° C. for 20 minutes; read-out: IC50 (μmol/L) PDE4
T2 construct: made in house; host or cells: Sf9 insect cells (baculovirus, Bac-to-Bac / Gateway)
T2 sequence (Q07343 330-659 limits assumed): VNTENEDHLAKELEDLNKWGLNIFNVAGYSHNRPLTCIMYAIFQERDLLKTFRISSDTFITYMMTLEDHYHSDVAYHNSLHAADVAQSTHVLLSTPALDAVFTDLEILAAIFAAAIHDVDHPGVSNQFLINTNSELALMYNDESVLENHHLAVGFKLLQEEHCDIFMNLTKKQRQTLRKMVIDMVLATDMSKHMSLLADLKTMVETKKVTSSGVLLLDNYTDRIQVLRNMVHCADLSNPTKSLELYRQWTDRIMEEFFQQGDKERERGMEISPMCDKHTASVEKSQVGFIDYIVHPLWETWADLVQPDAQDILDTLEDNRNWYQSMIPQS

T1 sequence (Q14432 674-1093 limits assumed): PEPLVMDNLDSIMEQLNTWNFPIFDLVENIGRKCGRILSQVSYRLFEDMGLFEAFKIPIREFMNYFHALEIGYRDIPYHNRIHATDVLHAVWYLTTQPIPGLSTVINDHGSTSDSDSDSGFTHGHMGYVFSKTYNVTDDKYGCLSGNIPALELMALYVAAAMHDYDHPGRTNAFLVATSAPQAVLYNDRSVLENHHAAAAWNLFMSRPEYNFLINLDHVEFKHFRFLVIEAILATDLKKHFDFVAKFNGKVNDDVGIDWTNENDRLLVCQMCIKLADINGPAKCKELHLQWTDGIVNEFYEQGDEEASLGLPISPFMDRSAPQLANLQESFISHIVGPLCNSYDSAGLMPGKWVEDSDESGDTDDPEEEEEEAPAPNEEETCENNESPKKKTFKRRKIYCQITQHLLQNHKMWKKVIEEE

Row | SMILES | IC50 [1] | IC50 [2]
1 | COc1ccc(-c2ccc3cnccc3c2)n2c(Cl)c(C(F)(F)F)nc12 [Example 57, 6-(3-Chloro-8-methoxy-2-trifluoromethylimidazo[1,2-a]pyridin-5-yl)isoquinoline] | ≥ 100 µmol/L | < 0.01 µmol/L
2 | COc1ccc(-c2ccc3cnccc3c2Cl)c2cc(C(F)(F)F)nn12 [Example 50, 5-Chloro-6-(7-methoxy-2-trifluoromethylpyrazolo[1,5-a]pyridin-4-yl)isoquinoline] | 1 to 100 µmol/L | < 0.01 µmol/L
3 | CNc1ccc(-c2ccc3cnccc3c2)c2c(Cl)c(C(F)(F)F)nn12 [Example 56, 3-Chloro-4-(isoquinolin-6-yl)-N-methyl-2-trifluoromethylpyrazolo[1,5-a]pyridine-7-amine] | ≥ 100 µmol/L | < 0.01 µmol/L
4 | CNc1ccc(-c2ccc3cnccc3c2)c2cc(C(F)(F)F)nn12 [Example 55, 4-(Isoquinolin-6-yl)-N-methyl-2-trifluoromethylpyrazolo[1,5-a]pyridine-7-amine] | ≥ 100 µmol/L | < 0.01 µmol/L
5 | COc1ccc(-c2ccc3cncc(Cl)c3c2)c2cc(C(F)(F)F)nn12 [Example 49, 4-Chloro-6-(7-methoxy-2-trifluoromethylpyrazolo[1,5-a]pyridin-4-yl)isoquinoline] | 1 to 100 µmol/L | < 0.01 µmol/L
6 | COc1ccc(-c2ccc3cnccc3c2)c2cc(C(F)(F)F)nn12 [Example 47, 6-(7-Methoxy-2-trifluoromethylpyrazolo[1,5-a]pyridin-4-yl)isoquinoline] | ≥ 100 µmol/L | < 0.01 µmol/L
7 | CNc1ccc(-c2ccc3cnccc3c2)n2c(Cl)c(C(F)(F)F)nc12 [Example 58, 3-Chloro-5-(isoquinolin-6-yl)-N-methyl-2-trifluoromethylimidazo[1,2a]pyridine-8-amine] | ≥ 100 µmol/L | < 0.01 µmol/L
8 | COc1ccc(-c2ccc3c[n+]([O-])ccc3c2)c2cc(C(F)(F)F)nn12 [Example 48, 6-(7-Methoxy-2-trifluoromethylpyrazolo[1,5-a]pyridin-4-yl)isoquinoline 2-oxide] | 1 to 100 µmol/L | < 0.01 µmol/L
9 | COc1ccc(-c2ccc3cncc(Cl)c3c2)c2c(Cl)c(C(F)(F)F)nn12 [Example 52, 4-Chloro-6-(3-chloro-7-methoxy-2-trifluoromethylpyrazolo[1,5-a]pyridin-4-yl)isoquinoline] | ≥ 100 µmol/L | < 0.01 µmol/L
10 | COc1ccc(-c2ccc3cnccc3c2)c2cccnc12 [Example 59, 5-(Isoquinolin-6-yl)-8-methoxyquinoline] | 1 to 100 µmol/L | < 0.01 µmol/L
11 | COc1ccc(-c2ccc3cnccc3c2)c2cc(C3CC3)nn12 [Example 53, 6-(2-Cyclopropyl-7-methoxypyrazolo[1,5-a]pyridin-4-yl)isoquinoline] | 1 to 100 µmol/L | < 0.01 µmol/L
12 | CCc1cc2c(-c3ccc4cnccc4c3)ccc(OC)n2n1 [Example 54, 6-(2-Ethyl-7-methoxypyrazolo[1,5-a]pyridin-4-yl)isoquinoline] | 1 to 100 µmol/L | < 0.01 µmol/L
13 | COc1ccc(-c2ccc3cnccc3c2)c2c(Cl)c(C(F)(F)F)nn12 [Example 51, 6-(3-Chloro-7-methoxy-2-trifluoromethylpyrazolo[1,5-a]pyridin-4-yl)isoquinoline] | ≥ 100 µmol/L | < 0.01 µmol/L
